Literature values, collected in patent publication US9609876B2, “Antimicrobial compositions” (priority 2012, dated 2017).

Experiments:
[1] = in vivo

Structure (SMILES) | pH range in which it is stable and maintains its antimicrobial activity | LD50 [1] [mg/kg]
CCCCCCCCCCCC(=O)N[C@@H](CCCNC(=N)N)C(=O)OCC.Cl [LAE, N^α-lauroyl-L-arginine ethyl ester monohydrochloride] | 3-7 | 
CC(=O)CCC(=O)O [Levulinic acid] |  | 1850
